# Results from US10196345B2, “MAO-B selective inhibitor compounds, pharmaceutical compositions thereof and uses thereof” (The University of British Columbia, priority 2013, dated 2019).
# Experiments:
# [1] = test system: AR protein secretion; assay: amphiregulin (AR) protein secretion, MDCK-I cells; type: cell-based, canine; conditions: no concentration given
# [2] = test system: MAO activity in adipocytes; conditions: cited from earlier work
# [3] = test system: rat periodontal disease model; conditions: cited from earlier work
# [4] = test system: Madin Darby canine kidney (MDCK-I) cells; assay: TEER in MDCK-I cells; type: cell-based; conditions: for 144-hour barrier (TEER) vs control: MDCK-I, treated at 72 hours
# Procedure: In each case, TEER was measured every 48 hours after treatment.
# Transwell cultures were treated at 72 hours (T) post-cell plating.
# Transepithelial Resistance (TER) is a common method to screen for barrier integrity. […] Fluorescein isothiocyanate conjugated 10 kD dextran (Invitrogen™) will be added to the apical Transwell™ compartment, fixed, and examined for dextran permeation (Umeda et al., 2006).
# Amphiregulin (AR) is an EGFR binding ligand and may play a pivotal role in the previously described signaling axis (see FIGS. 15-17). […] (ii) GI [intestinal epithelial cell (IEC)] and (iii) classical [Madin-Darby canine kidney (MDCK-1)].
# [5] = obese and non-obese rats; cited from earlier work
compound,measurement,setting,value
NNCCc1ccccc1 [phenelzine],"effect on AR expression/secretion (MAO A, B, AB inhibitors)",[1],reduced AR expression
same,MAO activity in adipocytes,[2],inhibit MAO activity in adipocytes
same,histological indicators of periodontal disease,"[3]; co-applied topically with LPS, rat",histological indicators of periodontal disease were reduced
same,"local epithelial cell proliferation and migration, alveolar bone loss, PMN infiltration and systemic H2O2","[3]; rat periodontal disease model, daily LPS",reduced
same,144-hour barrier (TEER) vs control,[4]; 5 μm inhibitor,increased over control
same,144-hour barrier (TEER) vs control,[4]; 40 μm inhibitor,increased over control
same,"effect on TEER (MAO A, B, AB inhibitors)",[4]; no concentration given,increased TEER
same,MAO activity,[5],inhibited MAO activity
same,body weight gain,[5],diminished body weight gain
same,intra-abdominal adipose tissue,[5],reduced intra-abdominal adipose tissue
